# In patent US20200316208A1, “MECHANICAL PROCESSING OF BIOPOLYMERS” (SolyPlus Berlin GmbH, priority 2017, published 2020):
# System: skin
# Settings: application to skin; 0.3% (m/m) histamine dihydrochloride solution used
compound,measurement,value
"Cl.Cl.NCCc1c[nH]cn1 [histamine solution droplet, Histamine dihydrochloride]","skin reaction (swelling, reddening, itchy feeling)",No effect
